Results: patent US20180264146A1, “NOVEL IMAGING COMPOUNDS” (AC IMMUNE S.A., priority 2015, published 2018)

How the values were obtained:
[1] = target: Tau in human Alzheimer disease brain homogenate (stage Braack V), [18F]-labeled Tau-Reference binder (Homo sapiens, UniProt P10636); assay: Tau radio-binding competition assay; conditions: competition with [18F]-labeled Tau-Reference binder, human AD brain homogenate
Protocol: Tau Radio-Binding Competition Assay
20 μg of human Alzheimer disease brain homogenate (stage Braack V) was incubated with a dilution series of each test compound (1000 to 0.06 nM) in the presence of 800 Bq of [^18F]-labeled Tau-Reference binder. The samples were shaken at 110 rpm for 45 min at 37° C. Samples were then filtered through GF/B 96 well filter plates and two times washed with 300 μl assay buffer (PBS containing 0.1% BSA and 2% DMSO). Thereafter, filter plates were sealed and a Fuji Film Imaging Plate (BAS-SR2025) were placed on top. The imaging plate was analyzed the next day using a Fuji Film BAS-5000. Non-specific signal was determined with samples containing [^18F]-labeled Tau-Reference binder in the presence of assay buffer missing brain substrate and competitor. Specific binding was calculated by subtracting the non-specific signal from the measured sample signal. The unblocked [^18F]-labeled Tau-Reference binder signal was defined as total binding. IC50 values were calculated by Prism V6 (GraphPad) using total binding as 100%.

MAO-A human-recombinant = target: T1, MAO-A human-recombinant (Homo sapiens, UniProt P21397); assay: Monoamine oxidase A (MAO-A) assay (MAO-Glo); type: biochemical; conditions: read-out: MAO A binding
T1 construct: purchased Sigma-Aldrich M7316
T1 sequence (P21397 1-527): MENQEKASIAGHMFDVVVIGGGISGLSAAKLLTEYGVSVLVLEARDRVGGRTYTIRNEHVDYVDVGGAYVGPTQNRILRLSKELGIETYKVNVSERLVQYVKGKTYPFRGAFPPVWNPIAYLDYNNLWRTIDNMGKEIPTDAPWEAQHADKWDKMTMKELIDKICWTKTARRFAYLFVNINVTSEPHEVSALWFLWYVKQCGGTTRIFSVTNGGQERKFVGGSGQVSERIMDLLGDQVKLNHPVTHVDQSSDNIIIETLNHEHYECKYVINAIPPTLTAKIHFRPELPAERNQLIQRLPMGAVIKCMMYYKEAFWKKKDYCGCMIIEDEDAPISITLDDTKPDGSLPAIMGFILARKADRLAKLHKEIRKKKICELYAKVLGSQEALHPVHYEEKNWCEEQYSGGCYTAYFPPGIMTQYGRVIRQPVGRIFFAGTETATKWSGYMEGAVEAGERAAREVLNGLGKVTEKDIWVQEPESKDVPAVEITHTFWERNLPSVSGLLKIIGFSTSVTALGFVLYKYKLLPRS
Protocol: Monoamine Oxidase A (MAO-A) Assay
Compounds were tested for their capacity to modulate MAO-A activity within the MAO-Glo™ Assay (Promega, Cat.# V1402). In each well of a 96-well plate, 12.5 μl of 4×MAO Substrate solution (end-concentration in assay: 40 μM) were mixed with 12.5 μl of a 4× solution of the corresponding test compound (end-concentrations ranged from 10 μM to 1.37 nM). In the absence of a test compound (i.e. to gauge the total MAO-A activity), the corresponding volume of MAO Reaction Buffer (100 mM HEPES (pH 7.5), 5% glycerol) was added. To initiate the MAO reaction, 25 μl of 2×MAO-A enzyme solution (MAO-A human-recombinant, Sigma-Aldrich, Cat.# M7316; 1 μg MAO-A enzyme/25 μl MAO Reaction Buffer) were added per well and mixed briefly. For negative control reactions, 25 μl of MAO Reaction Buffer were added. Thereafter the plate was incubated at room temperature for 1 hour, following which, 50 μl of reconstituted Luciferin Detection Reagent were added per well and mixed briefly. The plate was then incubated at room temperature for 20 minutes to generate and stabilize the luminescent signal. The luminescent signal was subsequently measured and recorded on the TopCountNXT™ luminescence counter (PerkinElmer). Data were analyzed and graphs were prepared using the Graphpad Prism 6 software.

MAO-B human-recombinant = target: T2, MAO-B human-recombinant (Homo sapiens, UniProt P27338); assay: MAO-B assay (MAO-Glo); type: biochemical; conditions: read-out: MAO B binding
T2 construct: purchased Sigma-Aldrich M7441
T2 sequence (P27338 1-520): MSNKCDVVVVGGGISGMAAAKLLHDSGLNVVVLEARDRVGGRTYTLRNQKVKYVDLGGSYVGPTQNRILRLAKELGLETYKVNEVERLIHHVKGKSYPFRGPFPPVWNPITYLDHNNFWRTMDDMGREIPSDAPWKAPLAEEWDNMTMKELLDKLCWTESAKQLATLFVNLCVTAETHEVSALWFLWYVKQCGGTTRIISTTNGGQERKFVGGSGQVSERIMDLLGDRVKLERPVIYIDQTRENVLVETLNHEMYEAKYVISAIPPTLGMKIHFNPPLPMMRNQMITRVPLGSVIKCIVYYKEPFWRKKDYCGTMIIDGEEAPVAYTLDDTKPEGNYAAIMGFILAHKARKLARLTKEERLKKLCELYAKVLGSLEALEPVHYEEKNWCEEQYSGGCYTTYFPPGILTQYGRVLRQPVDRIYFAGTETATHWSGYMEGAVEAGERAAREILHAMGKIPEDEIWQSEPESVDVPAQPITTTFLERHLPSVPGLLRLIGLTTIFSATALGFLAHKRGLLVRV
Protocol: Compounds were tested for their capacity to modulate MAO-B activity within the MAO-Glo™ Assay (Promega, Cat.# V1402). In each well of a 96-well plate, 12.5 μl of 4×MAO Substrate solution (end-concentration in assay: 4 μM) were mixed with 12.5 μl of a 4× solution of the corresponding test compound (end-concentrations ranged from 10 μM to 1.37 nM). In the absence of a test compound (i.e. to gauge the total MAO-B activity), the corresponding volume of MAO-B Reaction Buffer (100 mM HEPES (pH 7.5), 5% glycerol, 10% dimethyl sulphoxide) was added. To initiate the MAO reaction, 25 μl of 2×MAO-B enzyme solution (MAO-B human—recombinant, Sigma-Aldrich, Cat.# M7441; 1 μg MAO-B enzyme/25 μl MAO-B Reaction Buffer) were added per well and mixed briefly. For negative control reactions, 25 μl of MAO-B Reaction Buffer were added. Thereafter the plate was incubated at room temperature for 1 hour, following which, 50 μl of reconstituted Luciferin Detection Reagent were added per well and mixed briefly. The plate was then incubated at room temperature for 20 minutes to generate and stabilize the luminescent signal. The luminescent signal was subsequently measured and recorded on the TopCountNXT™ luminescence counter (PerkinElmer). Data were analyzed and graphs were prepared using the Graphpad Prism 6 software.

Chain of Tau in human Alzheimer disease brain homogenate (stage Braack V), [18F]-labeled Tau-Reference binder (P10636 623-695 limits assumed): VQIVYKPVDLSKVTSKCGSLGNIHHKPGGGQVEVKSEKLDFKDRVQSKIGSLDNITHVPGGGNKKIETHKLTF

| SMILES | IC50 [1] | IC50 (MAO-A human-recombinant) | IC50 (MAO-B human-recombinant) |
| --- | --- | --- | --- |
| F[C@H]1CCN(c2ccc3c(n2)[nH]c2ccncc23)C1 [Example 1] | 6 nM | > 1000 nM | > 1000 nM |
| FCCOCCOC1CCN(c2ccc3c(n2)[nH]c2ccncc23)CC1 [Example 5] | 6 nM | > 2000 nM | > 1000 nM |
| FCC(F)COC1CCN(c2ccc3c(n2)[nH]c2ccncc23)CC1 (stereo not shown) [Example 24] | 8 nM | – | – |
| F[C@@H]1CCCN(c2ccc3c(n2)[nH]c2ccncc23)C1 [Example 25] | 5.4 nM | 1020 nM | – |
| OC1(CF)CCN(c2ccc3c(n2)[nH]c2ccncc23)CC1 [Example 8] | 40 nM | 940 nM | > 1000 nM |
| FCCOC1CC2(C1)CN(c1ccc3c(n1)[nH]c1ccncc13)C2 [Example 13] | 16 nM | > 2000 nM | > 1000 nM |
| F[C@@H]1CCN(c2ccc3c(n2)[nH]c2ccncc23)C1 [Example 6] | 7 nM | 940 nM | > 1000 nM |
| F[C@H]1CCCN(c2ccc3c(n2)[nH]c2ccncc23)C1 [Example 26] | 16 nM | – | – |
| FC1CC2(C1)CN(c1ccc3c(n1)[nH]c1ccncc13)C2 [Example 12] | 13 nM | 570 nM | > 1000 nM |

Now those with a lower IC50 [1], led by results:

| IC50 [1] | IC50 (MAO-A human-recombinant) | IC50 (MAO-B human-recombinant) | SMILES |
| --- | --- | --- | --- |
| 5.2 nM | – | – | FC1CC2(CCN(c3ccc4c(n3)[nH]c3ccncc34)CC2)C1 [Example 28] |
| 4 nM | > 6000 nM | > 1000 nM | FCCOC1CCN(c2ccc3c(n2)[nH]c2ccncc23)CC1 [Example 2] |
| 3 nM | – | > 1000 nM | OC(CF)COC1CCN(c2ccc3c(n2)[nH]c2ccncc23)CC1 (stereo not shown) [Example 7] |
| 3 nM | – | – | FC1CCN(c2ccc3c(n2)[nH]c2ccncc23)CC1 [Example 27] |
| 2.3 nM | – | – | [2H]C([2H])(F)CCOC1CCN(c2ccc3c(n2)[nH]c2ccncc23)CC1 [Example 19] |
| 1.5 nM | – | – | FCCOCCC1CCN(c2ccc3c(n2)[nH]c2ccncc23)CC1 [Example 21] |
